Measured values as given in PMC11356900, “Synthesis, Structural Properties and Biological Activities of Novel Hydrazones of 2-, 3-, 4-Iodobenzoic Acid” (Molecules, 2024).
Converted amounts (≈) assume the structure as drawn.

Key:
[1] = system: A549 cell line; experiment: MTT cytotoxicity assay; assay type: cell-based
Description: (§1) Among all the newly synthesized compounds, four compounds designated as: 14, 20, 21 and 27 were selected for further testing of their cytotoxic properties at the doses of 10, 25, 50, 75 and 100 µM. The cytotoxic properties of the above compounds were tested on the cancer cell lines, i.e., A549 (ECACC 86012804) (non-small-cell lung cancer), T47D (ECACC 85102201) (breast cancer), HeLa (ATCC® CCL-2™) (cervical cancer) and normal line L929 (NCTC clone 929, ATCC® CCL-1™) (mouse fibroblasts) using the MTT test for 24- and 48 h cultures.
(§2) A549 (ECACC 86012804) (non-small-cell lung cancer) and T47D (ECACC 85102201) (breast cancer) were obtained from ECACC and propagated in Dulbecco’s Minimal Essential Medium, supplemented with 2 mM of glutamine, antibiotics ([…] streptomycin, 1% of 100 U/L penicillin) and 10% Fetal Bovine Serum. HeLa (ATCC® CCL-2™) (cervical cancer) and L929 (NCTC clone 929, ATCC® CCL-1™) (mouse fibroblasts) cell lines were obtained from ATCC and propagated in the Eagle Minimal Essential Medium supplemented with antibiotics ([…] streptomycin, 1% of 100 U/L penicillin) and with 10% and 5% FBS, respectively. The cell line was routinely grown in 75 cm^2 tissue culture flasks and kept in an incubator (humidified atmosphere of 5% CO2 at 37 °C). All examined cell lines were tested against mycoplasma contamination with microbiological assays.
(§3) The cell viability of tested compounds (14, 20, 21 and 27) was assessed by the MTT assay. In brief, the exponentially growing cells were plated in 100 μL/well in 96-well plates. After 24 h culturing, the cells were treated with different concentrations of compounds (range 10–100 μM). After 24 and 48 h of incubation, 10 μL of 5 mg/mL MTT was added to each well and the plates were incubated at 37 °C for additional 4 h. The medium was subsequently removed, the purple-colored precipitates of formazan were dissolved in 100 μL of DMSO. The color absorbance was recorded at 570 nm using a BioTek model EPOCH ELISA plate reader. All experiments were performed in triplicate. The absorbance values were in the range of linearity of the Lambert–Beer law.

[2] = system: HeLa cell line; experiment: MTT cytotoxicity assay; assay type: cell-based; settings: for cytotoxicity: 24 h culture
Description: as §1, §2, §3

[3] = system: T47D cell line; experiment: MTT cytotoxicity assay; assay type: cell-based
Description: as §1, §2, §3

[4] = system: Staphylococcus aureus ATCC 25923; experiment: Broth microdilution MIC/MBC; settings: Staphylococcus aureus, ATCC25923
[5] = system: Staphylococcus aureus ATCC 29213; experiment: Broth microdilution MIC/MBC; settings: ATCC29213
[6] = system: Staphylococcus aureus ATCC 43300; experiment: Broth microdilution MIC/MBC; settings: ATCC43300 / MRSA
[7] = system: Micrococcus luteus ATCC 10240; experiment: Broth microdilution MIC/MBC; settings: Micrococcus luteus, ATCC10240
[8] = system: Bacillus cereus ATCC 10876; experiment: Broth microdilution MIC/MBC; settings: Bacillus cereus, ATCC10876
[9] = system: Proteus mirabilis ATCC 12453; experiment: Broth microdilution MIC/MBC; settings: ATCC12453
[10] = system: Escherichia coli ATCC 25922; experiment: Broth microdilution MIC/MBC; settings: ATCC25922
[11] = system: Salmonella typhimurium ATCC 14028; experiment: Broth microdilution MIC/MBC

## O=C(N/N=C/c1cc(Cl)cc(I)c1O)c1ccc(I)cc1 [Compound 27, N-[(5-chloro-2-hydroxy-3-iodophenyl)methylidene]-4-iodobenzohydrazide]
[1]; A549, 24h, 10 µM, Repeat No 1
  cell proliferation: 95%
[1]; A549, 24h, 10 µM, Repeat No 2
  cell proliferation: 92%
[1]; A549, 24h, 25 µM, Repeat No 1
  cell proliferation: 97%
[1]; A549, 24h, 25 µM, Repeat No 2
  cell proliferation: 89%
[1]; A549, 24h, 50 µM, Repeat No 1
  cell proliferation: 94%
[1]; A549, 24h, 50 µM, Repeat No 2
  cell proliferation: 87%
[1]; A549, 24h, 75 µM, Repeat No 1
  cell proliferation: 87%
[1]; A549, 24h, 75 µM, Repeat No 2
  cell proliferation: 92%
[1]; A549, 24h, 100 µM, Repeat No 1
  cell proliferation: 109%
[1]; A549, 24h, 100 µM, Repeat No 2
  cell proliferation: 103%
[1]; A549, 24 h culture, dose of 100 µM
  effect on proliferation in words: increase in the proliferation of cancer cells
[1]; A549, 48h, 10 µM, Repeat No 1
  cell proliferation: 84%
[1]; A549, 48h, 10 µM, Repeat No 2
  cell proliferation: 87%
[1]; A549, 48h, 25 µM, Repeat No 1
  cell proliferation: 87%
[1]; A549, 48h, 25 µM, Repeat No 2
  cell proliferation: 82%
[1]; A549, 48h, 50 µM, Repeat No 1
  cell proliferation: 88%
[1]; A549, 48h, 50 µM, Repeat No 2
  cell proliferation: 89%
[1]; A549, 48h, 75 µM, Repeat No 1
  cell proliferation: 91%
[1]; A549, 48h, 75 µM, Repeat No 2
  cell proliferation: 87%
[1]; A549, 48h, 100 µM, Repeat No 1
  cell proliferation: 98%
[1]; A549, 48h, 100 µM, Repeat No 2
  cell proliferation: 95%
[2]; 24h, 10 µM, Repeat No 1
  cell proliferation: 74%
[2]; 24h, 10 µM, Repeat No 2
  cell proliferation: 83%
[2]; 24h, 25 µM, Repeat No 1
  cell proliferation: 69%
[2]; 24h, 25 µM, Repeat No 2
  cell proliferation: 73%
[2]; 24h, 50 µM, Repeat No 1
  cell proliferation: 61%
[2]; 24h, 50 µM, Repeat No 2
  cell proliferation: 67%
[2]; 24h, 75 µM, Repeat No 1
  cell proliferation: 72%
[2]; 24h, 75 µM, Repeat No 2
  cell proliferation: 69%
[2]; 24h, 100 µM, Repeat No 1
  cell proliferation: 63%
[2]; 24h, 100 µM, Repeat No 2
  cell proliferation: 59%
[2]; dose of 50 µM
  cytotoxicity: 37%
[2]; dose of 100 µM
  cytotoxicity: 41%
[2]; 48h, 10 µM, Repeat No 1
  cell proliferation: 77%
[2]; 48h, 10 µM, Repeat No 2
  cell proliferation: 82%
[2]; 48h, 25 µM, Repeat No 1
  cell proliferation: 82%
[2]; 48h, 25 µM, Repeat No 2
  cell proliferation: 71%
[2]; 48h, 50 µM, Repeat No 1
  cell proliferation: 61%
[2]; 48h, 50 µM, Repeat No 2
  cell proliferation: 49%
[2]; 48h, 75 µM, Repeat No 1
  cell proliferation: 51%
[2]; 48h, 75 µM, Repeat No 2
  cell proliferation: 43%
[2]; 48h, 100 µM, Repeat No 1
  cell proliferation: 63%
[2]; 48h, 100 µM, Repeat No 2
  cell proliferation: 57%
[3]; 24h, 10 µM, Repeat No 1
  cell proliferation: 96%
[3]; 24h, 10 µM, Repeat No 2
  cell proliferation: 91%
[3]; 24h, 25 µM, Repeat No 1
  cell proliferation: 91%
[3]; 24h, 25 µM, Repeat No 2
  cell proliferation: 82%
[3]; 24h, 50 µM, Repeat No 1
  cell proliferation: 83%
[3]; 24h, 50 µM, Repeat No 2
  cell proliferation: 79%
[3]; 24h, 75 µM, Repeat No 1
  cell proliferation: 84%
[3]; 24h, 75 µM, Repeat No 2
  cell proliferation: 87%
[3]; 24h, 100 µM, Repeat No 1
  cell proliferation: 86%
[3]; 24h, 100 µM, Repeat No 2
  cell proliferation: 91%
[3]; 48h, 10 µM, Repeat No 1
  cell proliferation: 82%
[3]; 48h, 10 µM, Repeat No 2
  cell proliferation: 75%
[3]; 48h, 25 µM, Repeat No 1
  cell proliferation: 88%
[3]; 48h, 25 µM, Repeat No 2
  cell proliferation: 84%
[3]; 48h, 50 µM, Repeat No 1
  cell proliferation: 81%
[3]; 48h, 50 µM, Repeat No 2
  cell proliferation: 80%
[3]; 48h, 75 µM, Repeat No 1
  cell proliferation: 79%
[3]; 48h, 75 µM, Repeat No 2
  cell proliferation: 72%
[3]; 48h, 100 µM, Repeat No 1
  cell proliferation: 83%
[3]; 48h, 100 µM, Repeat No 2
  cell proliferation: 81%
other
  melting point: 200 to 201 °C
[4]
  MBC: 250 µg/mL (≈ 475 µM)
  MIC: 62.5 µg/mL (≈ 119 µM)
[5]
  MBC: 125 µg/mL (≈ 237 µM)
  MIC: 62.5 µg/mL (≈ 119 µM)
[6]
  MBC: 250 µg/mL (≈ 475 µM)
  MIC: 62.5 µg/mL (≈ 119 µM)
[7]
  MBC: 250 µg/mL (≈ 475 µM)
  MIC: 125 µg/mL (≈ 237 µM)
[8]
  MBC: 250 µg/mL (≈ 475 µM)
  MIC: 62.5 µg/mL (≈ 119 µM)
[9]
  MBC: 1000 µg/mL (≈ 1900 µM)
  MBC/MIC: 2
  MIC: 500 µg/mL (≈ 950 µM)
[10]
  MBC: 500 µg/mL (≈ 950 µM)
  MBC/MIC: 1
  MIC: 500 µg/mL (≈ 950 µM)
[11]; Salmonella enterica
  MBC: 1000 µg/mL (≈ 1900 µM)
  MIC: 500 µg/mL (≈ 950 µM)
[11]; Salmonella typhimurium ATCC 14028
  MBC/MIC: 2
